From article PMC12035797, “Peptidomimetics Activating the Proteasome: A New Perspective for Parkinson’s Treatment” (Journal of Medicinal Chemistry, 2025)

Experiments:
[1] = PAMPA, blood–brain barrier mimic; assay type: in vitro ADME; settings: 500 μM, 37 °C, 22 h
Description: In neurodegenerative diseases, proteins prone to aggregation accumulate in the neuronal cells. Therefore, a necessary feature of potential drugs is not only permeability across the cell membrane but also the ability to cross the blood-brain barrier (BBB). To preliminarily investigate this feature, we performed parallel artificial membrane permeation assays (PAMPA) including as positive controls propranolol and Tat47-57, known for their ability to penetrate the blood-brain barrier. Dopamine hydrobromide was included as a negative control. For comparison, we also tested compound 1a, which is devoid of a CPP sequence. […] The PAMPA was performed as previously described.[21] Briefly, a 2% solution of porcine brain lipid membrane (PBL; Avanti Polar Lipids Inc., Alabaster, AL, USA) in anhydrous dodecane was used as a mimic of the blood-brain barrier. Propranolol hydrochloride (Merck, Darmstadt, Germany) and Tat47-57 (synthesized in-house) served as positive controls, while dopamine hydrobromide (Merck, Darmstadt, Germany) was used as a negative control. Stock solutions of the tested compounds and controls were prepared at a concentration of 10 mM in deionized water and then diluted to 500 μM using 0.1 M PBS containing 5% DMSO. The donor-acceptor plate assembly was incubated at 37 °C while being shaken at 250 rpm for 22 h. Absorbance at 290 nm was measured for propranolol using an Infinite […] plate reader (Infinite […] plate reader, Tecan). For the other samples, fluorescence measurements were performed after the compounds were reacted with 0.02% fluorescamine. The rate of passive diffusion was calculated as the linear velocity of permeation (Pe). The data represent an average of three independent biological replicates.

[2] = tested on: human 20S proteasome (α-synuclein substrate); experiment: α-Synuclein degradation by h20S (SDS-PAGE); assay type: biochemical; settings: 10 μM modulator, 37 °C, 1.5 h; h20S alone = 100%
Method: (§1) The effectiveness of the compounds has also been examined by using proteins as substrates. By means of SDS-PAGE electrophoresis, we checked the extent to which model proteins were digested by the 20S proteasome alone and after its stimulation by 10 μM modulators. […] After incubation with the enzyme in the presence of each modulator, less than 40% of synuclein remained. […] The experiment was performed as it was described.[36] Briefly, α-synuclein (rPeptide, […], USA) and Tau-441 (Novus Biologicals, Centennial, CO, USA) were dissolved in 20 mM HEPES buffer (pH 7.4) and mixed with a human 20S proteasome. Samples were incubated at 37 °C for 1.5 h, after which the reaction was terminated by adding 4× Laemmli buffer. The levels of undigested proteins were evaluated by SDS-PAGE. The band intensities of proteins incubated with […] in the presence of a modulator were compared to those of proteins incubated with the enzyme alone, which were set as 100%. Three independent experiments were performed for each protein. The results are presented as the means ± SD. One-way ANOVA with Tukey's post-hoc test was used to determine statistical significance.

[3] = tested on: human 20S proteasome (Tau-441 substrate); experiment: Tau-441 degradation by h20S (SDS-PAGE); assay type: biochemical; settings: 10 μM modulator, 37 °C, 1.5 h
Method: as §1

[4] = tested on: hippocampal neurons containing Lewy body-like pS129-αsyn aggregates; experiment: pS129-α-synuclein aggregates in PFF-treated hippocampal neurons; assay type: cell-based, mouse; settings: 7 days after PFFs
Description: Encouraged by the results received, we tested the ability of the modulator-CPP constructs to increase α-synuclein degradation in a cell model using primary mouse neuronal cells. The presence of Lewy-like neurites and Lewy-like bodies containing aggregated α-synuclein with phosphorylated serine 129 (pS129-αsyn) is a characteristic feature of the brains of people with Parkinson’s disease. To mimic these aggregations, we introduced a solution of preformed fibrils (PFFs) to the media of neuronal cells, which led to the induction of α-synuclein phosphorylation and its aggregation in neurons isolated from mouse embryos. PFFs are purified, prion-like fibrils of α-synuclein that are produced by expressing a recombinant monomeric protein in bacteria. Seven days after PFFs are introduced to the cells, large aggregates are visible in the cell soma, often next to the cell nucleus. We added the PFF solution to the hippocampal cells, and after an hour of incubation, we introduced solutions of the activator. After 7 days, we immunostained neuronal cells using a monoclonal antibody against the NeuN protein, which is commonly used in neuronal differentiation studies to assess their functional status. Additionally, we stained the nuclei of all incubated cells with DAPI. […] It is noteworthy that the number of cells in samples with activators was slightly higher (Figure 5), which may indicate neuroprotective properties. […] The main tool for monitoring this process was an antibody against pS129-αsyn. […] The fluorescent microscopy images (Figure 5) show the difference between the amounts of aggregated protein in the control sample and in the samples containing activators at different concentrations.
Cells were isolated from pregnant mouse embryos at E16.0 and plated on precoated with poly-L-lysine wells of 96-well plates (PerkinElmer/Revvity Inc., Waltham, MA, USA) at 25,000 cells/well. The final medium volume was 150 μL/well. Cells were incubated at 37 °C, 5% CO2. […]

C[C@@H](O)[C@H](NC(=O)[C@H](Cc1ccccc1)NC(=O)[C@H](Cc1ccc(O)cc1)NC(=O)CN(CCCCN)C(=O)[C@H](CCCNC(=N)N)NC(=O)[C@H](CCCNC(=N)N)NC(=O)[C@H](CCCNC(=N)N)NC(=O)[C@H](CCC(N)=O)NC(=O)[C@H](CCCNC(=N)N)NC(=O)[C@H](CCCNC(=N)N)NC(=O)[C@H](CCCCN)NC(=O)[C@H](CCCCN)NC(=O)[C@@H](N)CCCNC(=N)N)C(=O)NCC(=O)N[C@@H](CO)C(=O)N[C@@H](CCCCN)C(=O)N[C@@H](CC(=O)O)C(=O)N[C@@H](Cc1c[nH]c2ccccc12)C(=O)N[C@@H](CCCNC(=N)N)C(=O)N[C@@H](CO)C(=O)N[C@@H](Cc1ccc(O)cc1)C(=O)N[C@@H](Cc1ccc(O)cc1)C(=O)N[C@@H](CO)C(=O)O [1f]
permeability across artificial BBB membrane, PAMPA [1]: had the ability to penetrate the artificial membrane mimicking the BBB
α-synuclein remaining after incubation with h20S [2]: less than 40%
Tau protein digested by h20S [3]: more than 90%
effect on hippocampal cells containing α-synuclein aggregates ([4]; 0.5 and 2.5 μM): effectively reduced the number of hippocampal cells containing α-synuclein
reduction of the number of aggregates formed ([4]; very low concentration): 50%
